Measurements reported in patent publication US20260027116A1, “Methods of Treating Chronic Graft-Versus-Host Disease Following Allogeneic Hematopoietic Stem Cell Transplantation” (Kadmon Corporation, LLC, priority 2022, published 2026).
Read-outs that look alike come from different tables or passages of the source.

How the values were obtained:
cGVHD symptoms = assay: Example 1: Global Severity Rating (GSR); type: in vivo, human
Protocol: Maximal Improvement from Baseline in Global Severity Rating (GSR) by Clinician-reported cGVHD Assessment. […] The response was defined using the scores from 9 organs: skin, eyes, mouth, esophagus, upper gastrointestinal (GI) track, lower GI tract, liver, lungs, and joints and fascia plus GSR. End of treatment (EOT) visit was performed within 3 days after the participant's last dose of study drug. […] Analysis was performed on mITT population.

UGT1A9 = molecular target: T1, UGT1A9 (Homo sapiens, UniProt O60656); assay: metabolism in vitro; type: in vitro ADME
T1 sequence (O60656 26-530): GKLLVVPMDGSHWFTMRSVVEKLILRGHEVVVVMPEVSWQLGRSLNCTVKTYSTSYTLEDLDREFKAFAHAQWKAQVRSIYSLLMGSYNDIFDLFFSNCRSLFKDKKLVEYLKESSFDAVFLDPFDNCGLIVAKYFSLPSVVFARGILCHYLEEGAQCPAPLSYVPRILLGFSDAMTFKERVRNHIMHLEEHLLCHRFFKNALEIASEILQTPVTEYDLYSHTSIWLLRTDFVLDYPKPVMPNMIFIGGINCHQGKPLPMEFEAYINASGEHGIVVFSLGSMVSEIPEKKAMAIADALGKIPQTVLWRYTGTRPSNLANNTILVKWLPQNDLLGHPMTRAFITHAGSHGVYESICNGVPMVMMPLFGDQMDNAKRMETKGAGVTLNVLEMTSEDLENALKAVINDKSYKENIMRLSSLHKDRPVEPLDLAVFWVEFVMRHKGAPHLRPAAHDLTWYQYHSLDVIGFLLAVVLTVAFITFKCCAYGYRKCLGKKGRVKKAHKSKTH

[1] = system: patients with chronic GVHD; settings: for Abdominal pain / Arthralgia / Cough / Decreased appetite / Diarrhea / Dysphagia / Dyspnea / Edema / Headache / Hemorrhage / Hypertension / Infection (pathogen not specified) / Muscle spasm / Musculoskeletal pain / Nasal congestion / Pruritus / Pyrexia / Rash / Viral infection / Asthenia / Nausea: 200 mg once daily (N = 83); for Asthenia: includes fatigue, malaise; for Nausea: includes nausea, vomiting
[2] = Grade 2-4 Max Post, 200 mg once daily
[3] = Grade 3-4 Max Post, 200 mg once daily

For `CC(C)NC(=O)COc1cccc(-c2nc(Nc3ccc4[nH]ncc4c3)c3ccccc3n2)c1` [Belumosudil, 2-{3-[4-(1H-indazol-5-ylamino)-2-quinazolinyl]phenoxy}-N-(propan-2-yl) acetamide], which “GSR maximal improvement 0, participants (%)” value (cGVHD symptoms; Cohort 1 200 mg QD) is on record?
The value was 5 (29%) participants.

And the “GSR maximal improvement 1, participants (%)” value (cGVHD symptoms; Cohort 1 200 mg QD)?
The value was 0 (0%) participants.

And the “GSR maximal improvement 3, participants (%)” value (cGVHD symptoms; Cohort 1 200 mg QD)?
The value was 0 (0%) participants.

And the “GSR maximal improvement from baseline −7, participants (%)” value (cGVHD symptoms; Cohort 1 200 mg QD)?
The value was 0 (0%) participants.

And the “GSR maximal improvement −1, participants (%)” value (cGVHD symptoms; Cohort 1 200 mg QD)?
Its value is 1 (6%) participants.

What about the “GSR maximal improvement −2, participants (%)” value (cGVHD symptoms; Cohort 1 200 mg QD) of the same compound?
The value was 2 (12%) participants.

And the “GSR maximal improvement −3, participants (%)” value (cGVHD symptoms; Cohort 1 200 mg QD)?
Its value is 4 (24%) participants.

What about the “GSR maximal improvement −4, participants (%)” value (cGVHD symptoms; Cohort 1 200 mg QD) of the same compound?
Its value is 2 (12%) participants.

And the “GSR maximal improvement −5, participants (%)” value (cGVHD symptoms; Cohort 1 200 mg QD)?
The value was 2 (12%) participants.

And the “GSR maximal improvement −6, participants (%)” value (cGVHD symptoms; Cohort 1 200 mg QD)?
Its value is 0 (0%) participants.

And the “GSR maximal improvement 0, participants (%)” value (cGVHD symptoms; Cohort 2 200 mg BID)?
Its value is 4 (25%) participants.

What about the “GSR maximal improvement 1, participants (%)” value (cGVHD symptoms; Cohort 2 200 mg BID) of the same compound?
The value was 1 (6%) participants.

And the “GSR maximal improvement 3, participants (%)” value (cGVHD symptoms; Cohort 2 200 mg BID)?
The value was 1 (6%) participants.

And the “GSR maximal improvement from baseline −7, participants (%)” value (cGVHD symptoms; Cohort 2 200 mg BID)?
Its value is 0 (0%) participants.

And the “GSR maximal improvement −1, participants (%)” value (cGVHD symptoms; Cohort 2 200 mg BID)?
The value was 2 (13%) participants.

And the “GSR maximal improvement −2, participants (%)” value (cGVHD symptoms; Cohort 2 200 mg BID)?
Its value is 4 (25%) participants.

And the “GSR maximal improvement −3, participants (%)” value (cGVHD symptoms; Cohort 2 200 mg BID)?
The value was 0 (0%) participants.

And the “GSR maximal improvement −4, participants (%)” value (cGVHD symptoms; Cohort 2 200 mg BID)?
The value was 0 (0%) participants.

What about the “GSR maximal improvement −5, participants (%)” value (cGVHD symptoms; Cohort 2 200 mg BID) of the same compound?
The value was 2 (13%) participants.

And the “GSR maximal improvement −6, participants (%)” value (cGVHD symptoms; Cohort 2 200 mg BID)?
The value was 2 (13%) participants.

And the “GSR maximal improvement 0, participants (%)” value (cGVHD symptoms; Cohort 3 400 mg QD)?
Its value is 3 (14%) participants.

What about the “GSR maximal improvement 1, participants (%)” value (cGVHD symptoms; Cohort 3 400 mg QD) of the same compound?
Its value is 1 (5%) participants.

And the “GSR maximal improvement 3, participants (%)” value (cGVHD symptoms; Cohort 3 400 mg QD)?
Its value is 0 (0%) participants.

What about the “GSR maximal improvement from baseline −7, participants (%)” value (cGVHD symptoms; Cohort 3 400 mg QD) of the same compound?
Its value is 2 (10%) participants.

And the “GSR maximal improvement −1, participants (%)” value (cGVHD symptoms; Cohort 3 400 mg QD)?
Its value is 4 (19%) participants.

And the “GSR maximal improvement −2, participants (%)” value (cGVHD symptoms; Cohort 3 400 mg QD)?
The value was 4 (19%) participants.

And the “GSR maximal improvement −3, participants (%)” value (cGVHD symptoms; Cohort 3 400 mg QD)?
Its value is 1 (5%) participants.

What about the “GSR maximal improvement −4, participants (%)” value (cGVHD symptoms; Cohort 3 400 mg QD) of the same compound?
Its value is 3 (14%) participants.

And the “GSR maximal improvement −5, participants (%)” value (cGVHD symptoms; Cohort 3 400 mg QD)?
Its value is 0 (0%) participants.

And the “GSR maximal improvement −6, participants (%)” value (cGVHD symptoms; Cohort 3 400 mg QD)?
Its value is 0 (0%) participants.

And the “metabolism by UGT1A9” value (UGT1A9)?
The value was “to a lesser extent”.

What about the “adverse reactions leading to dose interruption” value ([1]; 200 mg once daily, N=83) of the same compound?
The value was 29%.

What about the “dose interruption due to asthenia, dyspnea, hemorrhage, hypotension, liver function test abnormal, nausea, pyrexia, edema, renal failure (each)” value ([1]; 200 mg once daily, N=83) of the same compound?
The value was 2%.

And the “dose interruption due to diarrhea” value ([1]; 200 mg once daily, N=83)?
The value was 4%.

What about the “dose interruption due to infections” value ([1]; 200 mg once daily, N=83) of the same compound?
Its value is 11%.

And the “patients with fatal adverse reaction” value ([1]; 200 mg once daily, N=83)?
Its value is “one”.

And the “permanent discontinuation due to adverse reactions” value ([1]; 200 mg once daily, N=83)?
Its value is 18%.

What about the “permanent discontinuation due to nausea” value ([1]; 200 mg once daily, N=83) of the same compound?
The value was 4%.

And the Abdominal pain ([1]; All Grades)?
The Abdominal pain was 22%.

And the Arthralgia ([1]; All Grades)?
Its Arthralgia is 15%.

What about the Cough ([1]; All Grades) of the same compound?
The Cough was 30%.

What about the Decreased appetite ([1]; All Grades) of the same compound?
Its Decreased appetite is 17%.

And the Diarrhea ([1]; All Grades)?
Its Diarrhea is 35%.

And the Dysphagia ([1]; All Grades)?
The Dysphagia was 16%.

And the Dyspnea ([1]; All Grades)?
The Dyspnea was 33%.

And the Edema ([1]; All Grades)?
The Edema was 27%.

What about the Headache ([1]; All Grades) of the same compound?
The Headache was 21%.

What about the Hemorrhage ([1]; All Grades) of the same compound?
The Hemorrhage was 23%.

And the Hypertension ([1]; All Grades)?
The Hypertension was 21%.

And the “Infection (pathogen not specified)” value ([1]; All Grades)?
The value was 53%.

What about the Muscle spasm ([1]; All Grades) of the same compound?
Its Muscle spasm is 17%.

What about the Musculoskeletal pain ([1]; All Grades) of the same compound?
The Musculoskeletal pain was 22%.

And the Nasal congestion ([1]; All Grades)?
The Nasal congestion was 12%.

And the Pruritus ([1]; All Grades)?
The Pruritus was 11%.

What about the Pyrexia ([1]; All Grades) of the same compound?
Its Pyrexia is 18%.

And the Rash ([1]; All Grades)?
Its Rash is 12%.

And the Viral infection ([1]; All Grades)?
Its Viral infection is 19%.

And the Asthenia ([1]; All Grades)?
The Asthenia was 46%.

And the Nausea ([1]; All Grades)?
Its Nausea is 42%.

What about the “Alanine Aminotransferase Increased” value [1, 2] of the same compound?
Its value is 7%.

And the “Alkaline Phosphatase Increased” value [1, 2]?
The value was 9%.

And the “Calcium Decreased” value [1, 2]?
Its value is 12%.

What about the “Creatinine Increased” value [1, 2] of the same compound?
Its value is 4%.

What about the “Gamma Glutamyl Transferase Increased” value [1, 2] of the same compound?
The value was 21%.

What about the “Hemoglobin Decreased” value [1, 2] of the same compound?
Its value is 11%.

What about the “Lymphocytes Decreased” value [1, 2] of the same compound?
The value was 29%.

And the “Neutrophil Count Decreased” value [1, 2]?
The value was 8%.

What about the “Phosphate Decreased” value [1, 2] of the same compound?
The value was 28%.

What about the “Platelets Decreased” value [1, 2] of the same compound?
The value was 10%.

What about the “Potassium Increased” value [1, 2] of the same compound?
Its value is 7%.

And the “Alanine Aminotransferase Increased” value [1, 3]?
The value was 2%.

What about the “Alkaline Phosphatase Increased” value [1, 3] of the same compound?
Its value is 0%.

And the “Calcium Decreased” value [1, 3]?
The value was 1%.

What about the “Creatinine Increased” value [1, 3] of the same compound?
The value was 0%.

And the “Gamma Glutamyl Transferase Increased” value [1, 3]?
The value was 11%.

And the “Hemoglobin Decreased” value [1, 3]?
Its value is 1%.

What about the “Lymphocytes Decreased” value [1, 3] of the same compound?
Its value is 13%.

And the “Neutrophil Count Decreased” value [1, 3]?
The value was 4%.

And the “Phosphate Decreased” value [1, 3]?
The value was 7%.

What about the “Platelets Decreased” value [1, 3] of the same compound?
Its value is 5%.

And the “Potassium Increased” value [1, 3]?
The value was 1%.

And the Abdominal pain ([1]; Grades 3-4)?
The Abdominal pain was 1%.

And the Arthralgia ([1]; Grades 3-4)?
Its Arthralgia is 2%.

What about the Cough ([1]; Grades 3-4) of the same compound?
Its Cough is 0%.

What about the Decreased appetite ([1]; Grades 3-4) of the same compound?
Its Decreased appetite is 1%.

What about the Diarrhea ([1]; Grades 3-4) of the same compound?
The Diarrhea was 5%.

What about the Dysphagia ([1]; Grades 3-4) of the same compound?
The Dysphagia was 0%.

And the Dyspnea ([1]; Grades 3-4)?
Its Dyspnea is 5%.

What about the Edema ([1]; Grades 3-4) of the same compound?
Its Edema is 1%.

And the Headache ([1]; Grades 3-4)?
The Headache was 0%.

What about the Hemorrhage ([1]; Grades 3-4) of the same compound?
The Hemorrhage was 5%.

And the Hypertension ([1]; Grades 3-4)?
The Hypertension was 7%.

What about the “Infection (pathogen not specified)” value ([1]; Grades 3-4) of the same compound?
The value was 16%.

What about the Muscle spasm ([1]; Grades 3-4) of the same compound?
The Muscle spasm was 0%.

And the Musculoskeletal pain ([1]; Grades 3-4)?
Its Musculoskeletal pain is 4%.

And the Nasal congestion ([1]; Grades 3-4)?
The Nasal congestion was 0%.

What about the Pruritus ([1]; Grades 3-4) of the same compound?
Its Pruritus is 0%.

And the Pyrexia ([1]; Grades 3-4)?
The Pyrexia was 1%.

And the Rash ([1]; Grades 3-4)?
The Rash was 0%.

And the Viral infection ([1]; Grades 3-4)?
Its Viral infection is 4%.

And the Asthenia ([1]; Grades 3-4)?
Its Asthenia is 4%.

And the Nausea ([1]; Grades 3-4)?
The Nausea was 4%.
